This note sets out measurements from ChEMBL document CHEMBL1155006, “Anti-retroviral and cytostatic activity of 2',3'-dideoxyribonucleoside 3'-disulfides” (Bioorg Med Chem, 2008).

For orientation: CC50 means the concentration giving 50% cytotoxicity. In general, EC50 refers to the concentration giving half of the maximal effect. Usually IC50 stands for the midpoint of a concentration-inhibition curve. As a reminder, the half-life is the time needed for the level to fall by half in the phase considered.

The structures appear in SMILES notation. Bounds are passed on as bounds.

Series [1] relates to Human immunodeficiency virus 1. The series can be described thus: Antiviral activity against HIV1 in CEM cells assessed as reduction of viral replication at 5 to 10 uM. Type of series: functional, CCRF-CEM. On the set-up: scale not given: the % may be the effect or the level left.
Series [2] can be described thus: Cytotoxicity against human CEM/0 cells. The format is cell-based, CCRF-CEM.
For series [3], the system named is Human immunodeficiency virus 2. Briefly: Antiviral activity against HIV2 ROD in CEM/0 cells assessed as inhibition of virus-induced cytopathogenicity. Type of series: functional, organism-based. To be noted: Human immunodeficiency virus 2, ROD, CCRF-CEM. (Protection from cytopathic effect is a common read-out in antiviral testing.)
The test system of series [4] is Human immunodeficiency virus 2. The series can be described thus: Antiviral activity against HIV2 ROD in TK1 deficient human CEM cells assessed as inhibition of virus-induced cytopathogenicity. The format is functional, organism-based. Particulars: Human immunodeficiency virus 2, ROD, CCRF-CEM.
Series [5] is described as follows: Cytotoxicity against human Molt4/C8. Type of series: functional, cell-based. Particulars: MOLT-4.
A short description of series [6]: Chemical stability assessed as half life at pH 7.2 in methanol-water mixture. The format is physicochemical.
Series [7] deals with T1, Thymidine kinase, cytosolic (Homo sapiens, UniProt P04183).
T1 sequence (P04183 whole entry): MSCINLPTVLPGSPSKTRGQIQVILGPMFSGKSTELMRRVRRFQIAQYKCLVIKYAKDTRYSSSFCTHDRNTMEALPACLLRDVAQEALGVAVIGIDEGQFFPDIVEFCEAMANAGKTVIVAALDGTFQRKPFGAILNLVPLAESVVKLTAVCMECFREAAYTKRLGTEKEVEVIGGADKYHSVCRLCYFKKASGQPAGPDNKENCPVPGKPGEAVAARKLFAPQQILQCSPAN
Briefly: Inhibition of recombinant TK1-mediated phosphorylation of [CH3-3H]deoxythymidine.

The target of series [8] is T1, Thymidine kinase, cytosolic. Briefly: Inhibition of recombinant TK1-mediated phosphorylation of [CH3-3H]deoxythymidine in presence of dithiothreitol.
Series [9] relates to Human immunodeficiency virus 1. The series can be described thus: Antiviral activity against HIV1 3B in CEM/0 cells assessed as inhibition of virus-induced cytopathogenicity. The format is functional, organism-based. Particulars: Human immunodeficiency virus 1, 3B, CCRF-CEM.
Series [10] in a line: Chemical stability assessed as half life in presence of dithiothreitol. Type of series: physicochemical.
For series [11], the system named is Moloney murine sarcoma virus. The series can be described thus: Inhibition of murine sarcoma virus-induced transformation of mouse embryo fibroblast C3H/3T3 cells after 6 days. Particulars: C3H/3T3, 144 h.
Series [12] has as its system Human immunodeficiency virus 1. The series can be described thus: Antiviral activity against HIV1 in human MT4 cells. To be noted: Human immunodeficiency virus 1, MT4. Type of series: functional, organism-based.
Series [13] can be described thus: Cytotoxicity against human MT4 cells. The format is cell-based.

With `CSS[C@H]1C[C@H](n2cc(C)c(=O)[nH]c2=O)O[C@@H]1CO`, the Activity in series [1] stood at 50%. The same molecule showed a CC50 in [2] of 102 µM. The half-maximal effective concentration (EC50) in series [3] is 12 µM; in series [4], above 50 µM; in series [9], 12 µM; in [11], 8.3 µM. Moreover, the concentration for half-maximal inhibition (IC50) is 66 µM in series [5], 73 µM in [7] and 333 µM in series [8]. The half-life in [6] is below 5 min; in series [10] it was below 480 min.

In [2], `Cc1cn([C@H]2C[C@H](SSC(Cl)(Cl)Cl)[C@@H](CO)O2)c(=O)[nH]c1=O` showed a cytotoxic concentration (CC50) of 103 µM. Also, the EC50 in [3] is 17.5 µM; in series [4], 22.5 µM; in series [9], 20 µM; in series [11] it was above 20 µM. Besides, the half-inhibitory concentration (IC50) in series [5] was 55 µM; in [7], 13 µM; in series [8], 365 µM. Besides, the half-life was below 5 min in [6] and below 90 min in series [10].

In the case of `Cc1cn([C@H]2C[C@H](SSc3ccc([N+](=O)[O-])cc3)[C@@H](CO)O2)c(=O)[nH]c1=O`, the half-maximal cytotoxic concentration (CC50) in series [2] amounted to 23 µM. In addition, the concentration for a half-maximal effect (EC50) in series [3] was 7.3 µM; in series [4] it was at least 10 µM; in series [9], 8 µM; in series [11] it was 0.89 µM. In series [5], this molecule registered an IC50 of 29 µM. The half-life in series [6] is below 5 min; in series [10], below 10 min.

Turning to `O=c1nc(O)ccn1[C@H]1C[C@H](SS[C@H]2C[C@H](n3ccc(O)nc3=O)O[C@@H]2CO)[C@@H](CO)O1`, the cytotoxic concentration (CC50) in [2] was at least 250 µM. The concentration giving a half-maximal response (EC50) in [3] and in series [9] was above 250 µM in each case.

Molecule `CSS[C@H]1C[C@H](n2cc(Br)c(=O)[nH]c2=O)O[C@@H]1CO` yielded a cytotoxic concentration (CC50) in series [2] of 103 µM. Besides, the EC50 in [3] and in series [9] was at least 50 µM in each case.

With `C=CCSS[C@H]1C[C@H](n2cc(C)c(=O)[nH]c2=O)O[C@@H]1CO`, in [2], the CC50 stood at 53 µM. For the same molecule, the EC50 in series [3] is 15 µM; in series [4], above 50 µM; in [9] it was 12.5 µM; in series [11], 2.2 µM. Further, it took 34 µM to reach half-maximal inhibition in series [5] (IC50). Also, the results for the half-life in series [6] and in [10] were below 5 min and below 480 min, respectively.

With `Cc1cn([C@H]2C[C@H](SSCCO)[C@@H](CO)O2)c(=O)[nH]c1=O`, the CC50 in series [2] amounted to 347 µM. Besides, the half-maximal effective concentration (EC50) in series [3] is 14 µM; in [4], above 50 µM; in series [9], 13.5 µM; in series [11], 5.9 µM. Moreover, the results for the IC50 in [5], in [7] and in series [8] were 128 µM, 18 µM and 405 µM, respectively. The figures for the half-life in [6] and in [10] were below 5 min and below 480 min, respectively.

In the case of `Cc1cn([C@H]2C[C@H](SSCCN)[C@@H](CO)O2)c(=O)[nH]c1=O`, the midpoint of cytotoxicity in series [2], the CC50, lay at 437 µM. Besides, the concentration for a half-maximal effect (EC50) worked out at 27.5 µM in [3], 150 µM in [4], 20 µM in [9] and 63 µM in [11]. Further, the results for the IC50 in [5], in series [7] and in series [8] were 163 µM, 10 µM and 418 µM, respectively. The half-life in series [6] was below 5 min; in series [10], below 480 min.

Regarding `Nc1ccn([C@H]2C[C@H](SS[C@H]3C[C@H](n4ccc(N)nc4=O)O[C@@H]3CO)[C@@H](CO)O2)c(=O)n1`, the midpoint of cytotoxicity in series [2], the CC50, lay at 216 µM. In addition, the figures for the EC50 in [3] and in series [9] were 65 µM and 73 µM, respectively.

In [2], `CCCCCCCCSS[C@H]1C[C@H](n2cc(C)c(=O)[nH]c2=O)O[C@@H]1CO` came in with a 50% cytotoxic concentration (CC50) of 21 µM. In addition, the EC50 was 4.5 µM in series [3], above 10 µM in series [4] and 20 µM in series [9]. The molecule further came in with a half-maximal inhibitory concentration (IC50) in series [5] of 26 µM. Besides, the half-life is below 5 min in [6] and below 480 min in series [10].

With `CSS[C@H]1C[C@H](n2ccc(=O)[nH]c2=O)O[C@@H]1CO`, in series [2], the midpoint of cytotoxicity, the CC50, lay at 170 µM. Moreover, the 50% effective concentration (EC50) in series [3] is at least 50 µM; in series [9] it was above 50 µM.

Regarding `CSS[C@H]1C[C@H](n2ccc(N)nc2=O)O[C@@H]1CO`, the half-maximal cytotoxic concentration (CC50) in [2] was 111 µM. Further, the EC50 in [3] turned out to be 14 µM; in [4], 45 µM; in series [9] it was 10 µM; in [11], 48 µM. Further, in series [5], it took 149 µM to reach half-maximal inhibition (IC50). Moreover, in series [6], the half-life was below 5 min.

Turning to `Cc1cn([C@H]2C[C@H](SSc3ccccc3[N+](=O)[O-])[C@@H](CO)O2)c(=O)[nH]c1=O`, the half-maximal cytotoxic concentration (CC50) in series [2] stood at 18.5 µM. In addition, the 50% effective concentration (EC50) in series [3] is above 10 µM; in series [4] it was above 10 µM; in series [9], 10 µM; in series [11] it was 1.1 µM. This molecule also came in with an IC50 in series [5] of 31 µM. Further, the figures for the half-life in series [6] and in series [10] were below 5 min and below 10 min, respectively.

Regarding `O=c1[nH]c(=O)n([C@H]2C[C@H](SS[C@H]3C[C@H](n4cc(Br)c(=O)[nH]c4=O)O[C@@H]3CO)[C@@H](CO)O2)cc1Br`, the 50% cytotoxic concentration (CC50) in [2] was above 250 µM. Moreover, the figures for the EC50 in series [3] and in series [9] were at least 250 µM and 127 µM, respectively.

`CCCCSS[C@H]1C[C@H](n2cc(C)c(=O)[nH]c2=O)O[C@@H]1CO` came in with a cytotoxic concentration (CC50) in series [2] of 23.3 µM. The EC50 in series [3] was above 10 µM; in series [4] it was above 10 µM; in series [9], 8 µM; in series [11], 1 µM. Also, the 50% inhibitory concentration (IC50) in series [5] turned out to be 28 µM. The figures for the half-life in series [6] and in series [10] were below 5 min and below 480 min, respectively.

For the molecule `Cc1cn([C@H]2C[C@H](SSCCCCCCO)[C@@H](CO)O2)c(=O)[nH]c1=O`, the CC50 in [2] was determined as 52 µM. For the same molecule, the EC50 was 15 µM in series [3], above 50 µM in series [4] and 15 µM in [9]. In series [5], this molecule had an IC50 of 42 µM. The half-life is below 5 min in series [6] and below 480 min in series [10].

In [2], `CCCCCCSS[C@H]1C[C@H](n2cc(C)c(=O)[nH]c2=O)O[C@@H]1CO` returned a CC50 of 39 µM. Also, the concentration for a half-maximal effect (EC50) in [3] is 6.5 µM; in [4] it was above 10 µM; in series [9], 20 µM. This molecule also came in with an IC50 in [5] of 27 µM. The half-life in series [6] was below 5 min; in [10] it was below 480 min.

As to `Cc1cn([C@H]2C[C@H](SS[C@H]3C[C@H](n4cc(C)c(O)nc4=O)O[C@@H]3CO)[C@@H](CO)O2)c(=O)nc1O`, in [12], the EC50 was 16 µM. The 50% cytotoxic concentration (CC50) in series [13] came out at 34 µM.

In series [12], `Nc1ccn(C2C[C@H](S)[C@@H](CO)O2)c(=O)n1` (single isomer, unassigned) displayed a 50% effective concentration (EC50) of 20 µM.

The molecule `Nc1ncnc2c1ncn2CCOCP(=O)(O)O` [ADEFOVIR] came in with a 50% effective concentration (EC50) in [11] of 0.53 µM.

With `C[C@H](Cn1cnc2c(N)ncnc21)OCP(=O)(O)O` [TENOFOVIR ANHYDROUS], the EC50 amounted to 5.5 µM in series [9] and 0.23 µM in series [11].
